Tests used:
adipocyte strain 3T3L-1 [1] = assay: Differentiation of precursor adipocytes into adipocytes (Oil Red O staining, absorbance of extract); assay type: cell-based; conditions: culture for 13 days; for Absorbance (490 nm): Oil Red O extracted with isopropanol, Control 0.266
Procedure: (§1) Therefore, effect of the medicaments of the present invention on enhancement of differentiation of precursor adipocytes into adipocytes was examined by using an adipocyte strain 3T3L-1 (obtained from Japanese Cancer Research Resource Bank) according to the published method (Endocrinology, 137, 4706, 1996). The cells were cultured in a culture dish having a diameter of 6 cm as a monolayer, and added with HX600, HX-620, HX-630, or HX-640 when the cells reached a density at which the cells began to contact with one another. After the culture for 13 days, lipid droplets in the cells were stained with Oil Red O. The dye was extracted with 1.0 ml of isopropanol (a modified method described in Methods in Enzymology, 32, 192), and absorbance (490 nm) of the extract was measured and used as index of differentiation into adipocytes.

adipocyte strain 3T3L1 = assay: Enhancement of the differentiation of precursor adipocytes into adipocytes induced by a thiazoline compound (troglitazone); assay type: cell-based; conditions: for Absorbance (490 nm): single compound 10^−7 M, culture 10 days, Control 0.086
Excerpt: The culture was continued for 10 days.

adipocyte strain 3T3L-1 [2] = assay: Enhancement of the differentiation of precursor adipocytes into adipocytes induced by insulin; assay type: cell-based; conditions: for Absorbance (490 nm): culture 9 days, Not added 0.072
Procedure: as §1
Synergistic effect of insulin used for therapeutic treatment of diabetes and the medicament of the present invention was examined. Cells of the adipocyte strain 3T3L-1 were cultured in a culture dish having a diameter of 3.5 cm as a monolayer, and added with 10 μg/ml of insulin and HX-600 (10^−6 M or 10^−8 M) when the cells reached a density at which the cells began to contact with one another. The culture was continued for 9 days.

[3] = test system: diabetic mice (C57BL/6J-Lepob); assay: Hypoglycemic action in diabetes model mice (blood glucose and acylglycerol level); assay type: in vivo; conditions: for Blood acylglyerol level, percentage based on the control group / Blood glucose level, percentage based on the control group / Blood acylglyerol level / Blood glucose level: 6th day; for Blood acylglyerol level: Control 132 ± 14; for Blood glucose level: Control 428 ± 82
Procedure: Experiments were performed by using diabetic mice hereditarily have pathological conditions of fatness, hyperglycemia, and hyperlipidemia (C57BL/6J-Lepob, female, Jackson Laboratory, 10-week old) according to the method described in the literature (Diabetologia, 14, 141, 1978). Blood samples were collected one day before the start of the administration, and the mice were divided into three groups (one group consisted of 4 or 5 mice). One group was used as a medication group, and each mouse of the group was orally administered with HX-600 suspended in 0.1% carboxymethylcellulose as microparticules (30 mg/kg/day or 100 mg/kg/day) every day for 6 days. Mice of the control group were orally administered with only 0.1% carboxymethylcellulose. On the 6th day after the start of the administration, blood samples were collected from ophthalmic fundus veins.
Blood glucose level was measured by the glucose oxidase method (Fuji Drychem Slide GLU-P), and acylglycerol level was measured by the glycerol phosphate dehydrogenase method (Fuji Drychem Slide TG-P). As a measurement apparatus, Fuji Drychem 5000 was used. […] Percentages based on the control group are also indicated.

[4] = 30 mg/kg/day and 100 mg/kg/day, 6th day of the administration

Molecule | Absorbance (490 nm) (adipocyte strain 3T3L-1 [1]; 10^−6 M) | Absorbance (490 nm) (adipocyte strain 3T3L-1 [1]; 10^−7 M) | Absorbance (490 nm) (adipocyte strain 3T3L-1 [1]; 10^−8 M) | differentiation of precursor adipocyte 3T3L-1 into adipocytes (in words) (adipocyte strain 3T3L-1 [1]) | Absorbance (490 nm) (adipocyte strain 3T3L1) | further results
4-[2,3-(2,5-dimethyl-2,5-hexano)dibenzo[b,e]azepin-11-yl]benzoic acid [HX-640] | 0.825 | 0.694 | 0.365 | strongly promoted | – | –
Cc1c(C)c2c(c(C)c1O)CCC(C)(COc1ccc(CC3SC(=O)NC3=O)cc1)O2 (stereo not drawn) [CS-045, troglitazone, reference compound] | – | – | – | – | 0.171 | –
CN1c2ccccc2N=C(c2ccc(C(=O)O)cc2)c2cc3c(cc21)C(C)(C)CCC3(C)C [HX-600, 4-[5H-2,3-(2,5-dimethyl-2,5-hexano)-5-methyldibenzo [b,e][1,4]diazepin-11-yl]benzoic acid] | 0.690 | 0.445 | 0.274 | strongly promoted | 0.131 | Absorbance (490 nm) (adipocyte strain 3T3L-1 [2]; HX-600 10^−6 M alone): 0.287; differentiation into adipocytes induced by the action of insulin (in words) (adipocyte strain 3T3L-1 [2]; HX-600 10^−6 M and 10^−8 M with insulin 10 μg/ml, 9 days): synergistically promoted; Absorbance (490 nm) (adipocyte strain 3T3L-1 [2]; HX-600 10^−8 M alone): 0.118; acylglycerol level versus the control group (in words) [3, 4]: remarkably lower; blood glucose level versus the control group (in words) [3, 4]: remarkably lower; Blood acylglyerol level, percentage based on the control group ([3]; 30 mg/kg/day oral for 6 days): 79.5%; Blood glucose level, percentage based on the control group ([3]; 30 mg/kg/day oral for 6 days): 60.3%; Blood acylglyerol level ([3]; 30 mg/kg/day oral for 6 days): 105 ± 14 mg/dL; Blood glucose level ([3]; 30 mg/kg/day oral for 6 days): 258 ± 56 mg/dL; Blood acylglyerol level, percentage based on the control group ([3]; 100 mg/kg/day oral for 6 days): 72.7%; Blood glucose level, percentage based on the control group ([3]; 100 mg/kg/day oral for 6 days): 55.6%; Blood acylglyerol level ([3]; 100 mg/kg/day oral for 6 days): 96 ± 11 mg/dL; Blood glucose level ([3]; 100 mg/kg/day oral for 6 days): 238 ± 59 mg/dL; action of inducing differentiation into adipocytes by CS-045 (in words) (adipocyte strain 3T3L1; HX600 10^−7 M with CS-045 10^−7 M, 10 days): synergistically promoted
CC1(C)CCC(C)(C)c2cc3c(cc21)Oc1ccccc1N=C3c1ccc(C(=O)O)cc1 [HX-620, 4-[2,3-(2,5-dimethyl-2,5-hexano)dibenzo[b,f][1,4]oxazepin-11-yl]benzoic acid] | 0.543 | 0.308 | 0.225 | strongly promoted | – | –
CC1(C)CCC(C)(C)c2cc3c(cc21)Sc1ccccc1N=C3c1ccc(C(=O)O)cc1 [HX-630, 4-[2,3-(2,5-dimethyl-2,5-hexano)dibenzo[b,f][1,4]thiazepin-11-yl]benzoic acid] | 0.745 | 0.471 | 0.298 | strongly promoted | – | –
insulin | – | – | – | – | – | Absorbance (490 nm) (adipocyte strain 3T3L-1 [2]; insulin 10 μg/ml alone): 0.301

From patent US6458782B1, “Remedies for diabetes” (priority 1997, dated 2002)
